This experiment has as its system batrachotoxin (BTX) binding site of the sodium channel. The experiment is described as follows: Affinity for the batrachotoxin (BTX) binding site of the sodium channel ([3H]-Batrachotoxinin A20 benzoate, rat cerebrocortex synaptosomes). Conditions: [3H]-Batrachotoxinin A20 benzoate 10 nM, test concentration not given.

Take `Cc1cccc(C(=O)Nc2ncc3c(n2)CCN(S(=O)(=O)c2sc(C)nc2C)C3)c1` [Example 68, N-[6-(2,4-dimethyl-thiazole-5-sulfonyl)-5,6,7,8-tetrahydro-pyrido[4,3-d]pyrimidin-2-yl]-3-methyl-benzamide]: the BTX inhibition turned out to be 35. The figure for `O=C(Nc1ncc2c(n1)CCN(C(=O)c1ccc3ccccc3c1)C2)c1ccc(Cl)cc1` [Example 69] is 64; for `O=C(Nc1ncc2c(n1)CCN(S(=O)(=O)c1ccc(Cl)cc1)C2)c1ccc(Cl)c(Cl)c1` [Example 71, 3,4-dichloro-N-[6-(4-chloro-benzenesulfonyl)-5,6,7,8-tetrahydro-pyrido[4,3-d]pyrimidin-2-yl]-benzamide] it is 69. In turn, `O=C(Nc1ncc2c(n1)CCN(S(=O)(=O)c1cccs1)C2)c1ccc(F)c(F)c1` [Example 72, 3,4-difluoro-N-[6-(thiophene-2-sulfonyl)-5,6,7,8-tetrahydro-pyrido[4,3-d]pyrimidin-2-yl]-benzamide] yielded a BTX inhibition of 31. The result for `CCc1ccc(C(=O)Nc2ncc3c(n2)CCN(C(=O)c2ccc(-n4cccn4)cc2)C3)cc1` [Example 74, 4-ethyl-N-[6-(4-pyrazol-1-yl-benzoyl)-5,6,7,8-tetrahydro-pyrido[4,3-d]pyrimidin-2-yl]-benzamide] reads 66; that for `COc1ccccc1C(=O)Nc1ncc2c(n1)CCN(C(=O)c1cc(-c3ccc(Cl)cc3)oc1C)C2` [Example 78, N-{6-[5-(4-chloro-phenyl)-2-methyl-furan-3-carbonyl]-5,6,7,8-tetrahydro-pyrido[4,3-d]pyrimidin-2-yl}-2-methoxy-benzamide], 31; that for `Cc1nc(C)c(S(=O)(=O)N2CCc3nc(NC(=O)c4ccc(Cl)cc4)ncc3C2)s1` [Example 79, 4-chloro-N-[6-(2,4-dimethyl-thiazole-5-sulfonyl)-5,6,7,8-tetrahydro-pyrido[4,3-d]pyrimidin-2-yl]-benzamide], 34.

As to `CCOc1ccccc1C(=O)Nc1ncc2c(n1)CCN(S(=O)(=O)c1ccccc1C(=O)OC)C2` [Example 82, 2-[2-(2-ethoxy-benzoylamino)-7,8-dihydro-5H-pyrido[4,3-d]pyrimidine-6-sulfonyl]-benzoic acid methyl ester], the BTX inhibition stood at 38. The result for `COc1ccccc1C(=O)Nc1ncc2c(n1)CCN(S(=O)(=O)c1ccc(Cl)s1)C2` [Example 86, N-[6-(5-chloro-thiophene-2-sulfonyl)-5,6,7,8-tetrahydro-pyrido[4,3-d]pyrimidin-2-yl]-2-methoxy-benzamide] reads 62; that for `Cc1ccc(C(=O)N2CCc3nc(NC(=O)c4ccc(C(C)(C)C)cc4)ncc3C2)cc1[N+](=O)[O-]` [Example 92, 4-tert-butyl-N-[6-(4-methyl-3-nitro-benzoyl)-5,6,7,8-tetrahydro-pyrido[4,3-d]pyrimidin-2-yl]-benzamide], 75.

`O=C(CCc1ccccc1)NC1CCc2nc(NC(=O)c3ccc(F)cc3)ncc2C1` (stereo not drawn) [Example 94, 4-fluoro-N-[6-(3-phenyl-propionylamino)-5,6,7,8-tetrahydro-quinazolin-2-yl]-benzamide] displayed a BTX inhibition of 47. The figure for `Cc1cc(C)c(S(=O)(=O)N2CCc3nc(NC(=O)c4ccc(Cl)c(Cl)c4)ncc3C2)c(C)c1` [Example 95, 3,4-dichloro-N-[6-(2,4,6-trimethyl-benzenesulfonyl)-5,6,7,8-tetrahydro-pyrido[4,3-d]pyrimidin-2-yl]-benzamide] is 77. The figure for `Cc1cc(C)c(C)c(S(=O)(=O)N2CCc3nc(NC(=O)c4cccs4)ncc3C2)c1C` [Example 99, thiophene-2-carboxylic acid [6-(2,3,5,6-tetramethyl-benzenesulfonyl)-5,6,7,8-tetrahydro-pyrido[4,3-d]pyrimidin-2-yl]-amide] is 78; for `CCc1ccc(C(=O)Nc2ncc3c(n2)CCN(C(=O)c2ccc(Cl)c(Cl)c2)C3)cc1` [Example 101, N-[6-(3,4-dichloro-benzoyl)-5,6,7,8-tetrahydro-pyrido[4,3-d]pyrimidin-2-yl]-4-ethyl-benzamide] it is 68.

Regarding `Cc1ccc(C(=O)Nc2ncc3c(n2)CCN(S(=O)(=O)c2cc(F)ccc2C)C3)cc1` [Example 107, N-[6-(5-fluoro-2-methyl-benzenesulfonyl)-5,6,7,8-tetrahydro-pyrido[4,3-d]pyrimidin-2-yl]-4-methyl-benzamide], the BTX inhibition stood at 73.

In turn, `O=C(Nc1ncc2c(n1)CCN(C(=O)c1sc3ccccc3c1Cl)C2)c1cccs1` [Example 110, thiophene-2-carboxylic acid [6-(3-chloro-benzo[b]thiophene-2-carbonyl)-5,6,7,8-tetrahydro-pyrido[4,3-d]pyrimidin-2-yl]-amide] displayed a BTX inhibition of 40. The result for `O=C(Nc1ncc2c(n1)CCN(C(=O)c1ccc(Cl)c(Cl)c1)C2)c1ccccc1F` [Example 113, N-[6-(3,4-dichloro-benzoyl)-5,6,7,8-tetrahydro-pyrido[4,3-d]pyrimidin-2-yl]-2-fluoro-benzamide] reads 38; that for `CCc1ccc(C(=O)Nc2ncc3c(n2)CCN(S(=O)(=O)c2ccccc2Cl)C3)cc1` [Example 114, N-[6-(2-chloro-benzenesulfonyl)-5,6,7,8-tetrahydro-pyrido[4,3-d]pyrimidin-2-yl]-4-ethyl-benzamide], 82; that for `Cc1cc(C(=O)NC2CCc3nc(NC(=O)c4cccs4)ncc3C2)ccc1Br` (stereo not drawn) [Example 115, thiophene-2-carboxylic acid [6-(4-bromo-3-methyl-benzoylamino)-5,6,7,8-tetrahydro-quinazolin-2-yl]-amide], 82.

For the compound `Cc1cccc(C(=O)Nc2ncc3c(n2)CCN(S(=O)(=O)c2cccc(C)c2)C3)c1` [Example 116, 3-methyl-N-[6-(toluene-3-sulfonyl)-5,6,7,8-tetrahydro-pyrido[4,3-d]pyrimidin-2-yl]-benzamide], the BTX inhibition was determined as 53. The result for `O=C(Nc1ncc2c(n1)CCN(S(=O)(=O)c1ccc(Cl)s1)C2)c1cccc2ccccc12` [Example 117, naphthalene-1-carboxylic acid [6-(5-chloro-thiophene-2-sulfonyl)-5,6,7,8-tetrahydro-pyrido[4,3-d]pyrimidin-2-yl]-amide] reads 37. The result for `O=C(Nc1ncc2c(n1)CCN(C(=O)c1sc3ccccc3c1Cl)C2)c1ccccc1` [Example 120, N-[6-(3-chloro-benzo[b]thiophene-2-carbonyl)-5,6,7,8-tetrahydro-pyrido[4,3-d]pyrimidin-2-yl]-benzamide] reads 48.

With `CCc1ccc(C(=O)Nc2ncc3c(n2)CCN(S(=O)(=O)c2ccsc2)C3)cc1` [Example 121, 4-ethyl-N-[6-(thiophene-3-sulfonyl)-5,6,7,8-tetrahydro-pyrido[4,3-d]pyrimidin-2-yl]-benzamide], the BTX inhibition is on record as 57.

In turn, `O=C(Nc1ncc2c(n1)CCN(S(=O)(=O)c1cccc(Br)c1)C2)c1cccc(Cl)c1` [Example 125, N-[6-(3-bromo-benzenesulfonyl)-5,6,7,8-tetrahydro-pyrido[4,3-d]pyrimidin-2-yl]-3-chloro-benzamide] returned a BTX inhibition of 66.
